Measured values: ChEMBL document CHEMBL1201862, “PubChem BioAssay data set” (2004)
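Grown in 96-well plates, cells were treated for 48 hours with each compound at five concentrations. Insufficient inhibition: endpoint recorded as highest concentration tested. The concentration for 50% growth inhibition is given as GI50.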 The source made the active and inactive calls. Rule as the data show it: active = GI50 up to about 1.1 µM and inactive = higher.

What was measured:
Assay in all cases: growth of human tumour cells (NCI), 48 h
786-0 = system: 786-0
A498 = system: A498
A549 = system: A549
ACHN = system: ACHN
CAKI-1 = system: CAKI-1
CCRF-CEM = system: CCRF-CEM
COLO 205 = system: COLO 205
DLD-1 = system: DLD-1
DMS-114 = system: DMS-114
DMS-273 = system: DMS-273
EKVX = system: EKVX
HCC 2998 = system: HCC 2998
HCT-116 = system: HCT-116
HCT-15 = system: HCT-15
HL-60 = system: HL-60
HOP-18 = system: HOP-18
HOP-62 = system: HOP-62
HOP-92 = system: HOP-92
HT-29 = system: HT-29
IGROV-1 = system: IGROV-1
KM-20L2 = system: KM-20L2
KM12 = system: KM12
LXFL 529 = system: LXFL 529
M14 = system: M14
M19-MEL = system: M19-MEL
MOLT-4 = system: MOLT-4
Malme-3M = system: Malme-3M
NCI-H226 = system: NCI-H226
NCI-H23 = system: NCI-H23
NCI-H460 = system: NCI-H460
NCI-H522 = system: NCI-H522
OVCAR-3 = system: OVCAR-3
OVCAR-4 = system: OVCAR-4
OVCAR-8 = system: OVCAR-8
RXF 393 = system: RXF 393
SF-268 = system: SF-268
SF-295 = system: SF-295
SF-539 = system: SF-539
SK-MEL-28 = system: SK-MEL-28
SK-MEL-2 = system: SK-MEL-2
SK-MEL-5 = system: SK-MEL-5
SK-OV-3 = system: SK-OV-3
SN12C = system: SN12C
SNB-19 = system: SNB-19
SNB-75 = system: SNB-75
SNB-78 = system: SNB-78
SR = system: SR
SW-620 = system: SW-620
TK-10 = system: TK-10
U-251 = system: U-251
UACC-257 = system: UACC-257
UACC-62 = system: UACC-62
UO-31 = system: UO-31
XF498 = system: XF498
K562 = system: K562
LOX IMVI = system: LOX IMVI
OVCAR-5 = system: OVCAR-5
RPMI-8226 = system: RPMI-8226
RXF 631 = system: RXF 631

SMILES: Cc1ccc(C)c(N2C(=O)C(=O)C(c3nc4ccccc4o3)/C(=N/N)C2=O)c1 (configuration not stated)
- GI50 (786-0): > 100 µM (inactive)
- GI50 (A498): > 100 µM (inactive)
- GI50 (A549): > 100 µM (inactive)
- GI50 (ACHN): > 100 µM (inactive)
- GI50 (CAKI-1): > 100 µM (inactive)
- GI50 (CCRF-CEM): > 100 µM (inactive)
- GI50 (COLO 205): > 100 µM (inactive)
- GI50 (DLD-1): > 100 µM (inactive)
- GI50 (DMS-114): > 100 µM (inactive)
- GI50 (DMS-273): > 100 µM (inactive)
- GI50 (EKVX): > 100 µM (inactive)
- GI50 (HCC 2998): > 100 µM (inactive)
- GI50 (HCT-116): > 100 µM (inactive)
- GI50 (HCT-15): > 100 µM
- GI50 (HL-60): > 100 µM (inactive)
- GI50 (HOP-18): > 100 µM (inactive)
- GI50 (HOP-62): > 100 µM (inactive)
- GI50 (HOP-92): > 100 µM (inactive)
- GI50 (HT-29): > 100 µM (inactive)
- GI50 (IGROV-1): > 100 µM (inactive)
- GI50 (KM-20L2): > 100 µM (inactive)
- GI50 (KM12): > 100 µM (inactive)
- GI50 (LXFL 529): > 100 µM (inactive)
- GI50 (M14): > 100 µM (inactive)
- GI50 (M19-MEL): > 100 µM (inactive)
- GI50 (MOLT-4): > 100 µM (inactive)
- GI50 (Malme-3M): > 100 µM (inactive)
- GI50 (NCI-H226): > 100 µM (inactive)
- GI50 (NCI-H23): > 100 µM (inactive)
- GI50 (NCI-H460): > 100 µM (inactive)
- GI50 (NCI-H522): > 100 µM (inactive)
- GI50 (OVCAR-3): > 100 µM (inactive)
- GI50 (OVCAR-4): > 100 µM (inactive)
- GI50 (OVCAR-8): > 100 µM (inactive)
- GI50 (RXF 393): > 100 µM (inactive)
- GI50 (SF-268): > 100 µM (inactive)
- GI50 (SF-295): > 100 µM (inactive)
- GI50 (SF-539): > 100 µM (inactive)
- GI50 (SK-MEL-28): > 100 µM (inactive)
- GI50 (SK-MEL-2): > 100 µM (inactive)
- GI50 (SK-MEL-5): > 100 µM (inactive)
- GI50 (SK-OV-3): > 100 µM (inactive)
- GI50 (SN12C): > 100 µM (inactive)
- GI50 (SNB-19): > 100 µM (inactive)
- GI50 (SNB-75): 95.7 µM (inactive)
- GI50 (SNB-78): > 100 µM (inactive)
- GI50 (SR): > 100 µM (inactive)
- GI50 (SW-620): > 100 µM (inactive)
- GI50 (TK-10): > 100 µM (inactive)
- GI50 (U-251): > 100 µM (inactive)
- GI50 (UACC-257): > 100 µM (inactive)
- GI50 (UACC-62): > 100 µM (inactive)
- GI50 (UO-31): > 100 µM (inactive)
- GI50 (XF498): 47.6 µM (inactive)

SMILES: COc1cc(CCC(=O)NS(=O)(=O)c2ccccc2)cc(OC)c1OC
- GI50 (786-0): > 100 µM (inactive)
- GI50 (A498): > 100 µM (inactive)
- GI50 (A549): > 100 µM (inactive)
- GI50 (ACHN): > 100 µM (inactive)
- GI50 (CAKI-1): > 100 µM (inactive)
- GI50 (CCRF-CEM): > 100 µM (inactive)
- GI50 (COLO 205): > 100 µM (inactive)
- GI50 (DLD-1): > 100 µM (inactive)
- GI50 (DMS-114): > 100 µM (inactive)
- GI50 (DMS-273): > 100 µM (inactive)
- GI50 (EKVX): > 100 µM (inactive)
- GI50 (HCC 2998): > 100 µM (inactive)
- GI50 (HCT-116): > 100 µM (inactive)
- GI50 (HL-60): > 100 µM (inactive)
- GI50 (HOP-18): 72.6 µM (inactive)
- GI50 (HOP-62): > 100 µM (inactive)
- GI50 (HOP-92): > 100 µM (inactive)
- GI50 (HT-29): > 100 µM (inactive)
- GI50 (IGROV-1): > 100 µM (inactive)
- GI50 (K562): > 100 µM (inactive)
- GI50 (KM-20L2): > 100 µM (inactive)
- GI50 (KM12): > 100 µM (inactive)
- GI50 (LOX IMVI): > 100 µM (inactive)
- GI50 (LXFL 529): > 100 µM (inactive)
- GI50 (M14): > 100 µM (inactive)
- GI50 (MOLT-4): > 100 µM (inactive)
- GI50 (Malme-3M): > 100 µM (inactive)
- GI50 (NCI-H226): > 100 µM (inactive)
- GI50 (NCI-H23): > 100 µM (inactive)
- GI50 (NCI-H460): > 100 µM (inactive)
- GI50 (NCI-H522): > 100 µM (inactive)
- GI50 (OVCAR-3): > 100 µM (inactive)
- GI50 (OVCAR-4): > 100 µM (inactive)
- GI50 (OVCAR-5): > 100 µM (inactive)
- GI50 (OVCAR-8): > 100 µM (inactive)
- GI50 (RPMI-8226): > 100 µM (inactive)
- GI50 (RXF 393): > 100 µM (inactive)
- GI50 (SF-268): > 100 µM (inactive)
- GI50 (SF-295): > 100 µM (inactive)
- GI50 (SF-539): > 100 µM (inactive)
- GI50 (SK-MEL-28): > 100 µM (inactive)
- GI50 (SK-MEL-2): > 100 µM (inactive)
- GI50 (SK-OV-3): > 100 µM (inactive)
- GI50 (SN12C): > 100 µM (inactive)
- GI50 (SNB-19): > 100 µM (inactive)
- GI50 (SNB-75): 61.4 µM (inactive)
- GI50 (SNB-78): > 100 µM (inactive)
- GI50 (SR): > 100 µM (inactive)
- GI50 (SW-620): > 100 µM (inactive)
- GI50 (TK-10): > 100 µM (inactive)
- GI50 (U-251): > 100 µM (inactive)
- GI50 (UACC-257): > 100 µM (inactive)
- GI50 (UACC-62): > 100 µM (inactive)
- GI50 (UO-31): > 100 µM (inactive)
- GI50 (XF498): > 100 µM (inactive)

SMILES: CCCCn1c(-c2ccccc2)cs/c1=N\N=C1C=C(C(C)(C)C)C(=O)C(C(C)(C)C)=C1
- GI50 (786-0): > 100 µM (inactive)
- GI50 (A498): > 100 µM (inactive)
- GI50 (A549): > 100 µM (inactive)
- GI50 (ACHN): > 100 µM (inactive)
- GI50 (CAKI-1): > 100 µM (inactive)
- GI50 (CCRF-CEM): > 100 µM (inactive)
- GI50 (COLO 205): > 100 µM (inactive)
- GI50 (DMS-114): > 100 µM (inactive)
- GI50 (DMS-273): > 100 µM (inactive)
- GI50 (EKVX): > 100 µM (inactive)
- GI50 (HCC 2998): > 100 µM (inactive)
- GI50 (HCT-116): > 100 µM (inactive)
- GI50 (HCT-15): > 100 µM
- GI50 (HL-60): > 100 µM (inactive)
- GI50 (HOP-62): > 100 µM (inactive)
- GI50 (HT-29): > 100 µM (inactive)
- GI50 (IGROV-1): > 100 µM (inactive)
- GI50 (K562): > 100 µM (inactive)
- GI50 (KM-20L2): > 100 µM (inactive)
- GI50 (LOX IMVI): > 100 µM (inactive)
- GI50 (LXFL 529): > 100 µM (inactive)
- GI50 (M14): > 100 µM (inactive)
- GI50 (M19-MEL): > 100 µM (inactive)
- GI50 (MOLT-4): > 100 µM (inactive)
- GI50 (Malme-3M): > 100 µM (inactive)
- GI50 (NCI-H226): > 100 µM (inactive)
- GI50 (NCI-H23): > 100 µM (inactive)
- GI50 (NCI-H460): > 100 µM (inactive)
- GI50 (OVCAR-3): > 100 µM (inactive)
- GI50 (OVCAR-4): > 100 µM (inactive)
- GI50 (OVCAR-5): > 100 µM (inactive)
- GI50 (OVCAR-8): > 100 µM (inactive)
- GI50 (RXF 393): > 100 µM (inactive)
- GI50 (RXF 631): > 100 µM (inactive)
- GI50 (SF-268): > 100 µM (inactive)
- GI50 (SF-295): > 100 µM (inactive)
- GI50 (SF-539): > 100 µM (inactive)
- GI50 (SK-MEL-2): > 100 µM (inactive)
- GI50 (SN12C): > 100 µM (inactive)
- GI50 (SNB-19): > 100 µM (inactive)
- GI50 (SR): > 100 µM (inactive)
- GI50 (SW-620): > 100 µM (inactive)
- GI50 (TK-10): > 100 µM (inactive)
- GI50 (U-251): > 100 µM (inactive)
- GI50 (UACC-257): > 100 µM (inactive)
- GI50 (UACC-62): > 100 µM (inactive)
- GI50 (UO-31): > 100 µM (inactive)
- GI50 (XF498): > 100 µM (inactive)
